PubChem BioAssay AID328 (DTP/NCI, 2004)
Toxic doses and inconclusive results are not listed.

System: BDF1 mice, P388 leukemia ip, median survival T/C
Assay: NCI In Vivo Anticancer Drug Screen. Data for tumor model P388 Leukemia (intraperitoneal) in B6D2F1 (BDF1) mice
Settings: endpoint: median survival time, higher = longer survival
Procedure, shortened: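 Reported as T/C, where T is the survival measurement in dosed animals and C the same measurement in vehicle controls.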

[1] = dose: 100.0 mg/kg/injection, schedule: Q04DX003 (ip), vehicle: Klucel (hydroxypropylcellulose) (HPC)
[2] = dose: 200.0 mg/kg/injection, schedule: Q04DX003 (ip), vehicle: Klucel (hydroxypropylcellulose) (HPC)
[3] = dose: 400.0 mg/kg/injection, schedule: Q04DX003 (ip), vehicle: Klucel (hydroxypropylcellulose) (HPC)
[4] = dose: 50.0 mg/kg/injection, schedule: Q01DX009 (ip), vehicle: saline with Tween-80
[5] = dose: 100.0 mg/kg/injection, schedule: Q01DX009 (ip), vehicle: saline with Tween-80
[6] = dose: 100.0 mg/kg/injection, schedule: Q04DX003 (ip), vehicle: saline with Tween-80
[7] = dose: 200.0 mg/kg/injection, schedule: Q01DX009 (ip), vehicle: saline with Tween-80
[8] = dose: 200.0 mg/kg/injection, schedule: Q04DX003 (ip), vehicle: saline with Tween-80
[9] = dose: 400.0 mg/kg/injection, schedule: Q01DX009 (ip), vehicle: saline with Tween-80
[10] = dose: 400.0 mg/kg/injection, schedule: Q04DX003 (ip), vehicle: saline with Tween-80
[11] = dose: 75.0 mg/kg/injection, schedule: Q01DX009 (ip), vehicle: saline with Tween-80
[12] = dose: 150.0 mg/kg/injection, schedule: Q01DX009 (ip), vehicle: saline with Tween-80
[13] = dose: 25.0 mg/kg/injection, schedule: Q01DX009 (ip), vehicle: saline with Tween-80

CCCCCCCCCCCCCCCC(N)=O was tested, and the T/C (dose: 12.5 mg/kg/injection, schedule: Q01DX009 (ip), vehicle: gum acacia) was 100 % of control, the T/C (dose: 50.0 mg/kg/injection, schedule: Q01DX009 (ip), vehicle: gum acacia) was 91 % of control and the T/C [1] was 86 % of control. For the same molecule, the T/C [2] was 90 % of control and the T/C [3] was 104 % of control.

CCOc1nc(=O)n(CC(=O)c2ccc(Cl)s2)cc1F was tested, and the T/C [4] was 114 % of control, the T/C [5] was 103 % of control and the T/C [6] was 110 % of control. For the same molecule, the T/C [7] was 99 % of control, the T/C [8] was 111 % of control and the T/C [9] was 87 % of control. For the same molecule, the T/C [10] was 104 % of control.

In the case of CCOC(=O)CC1=NN=C(N)SC1, the T/C (dose: 100.0 mg/kg/injection, schedule: Q01DX009 (ip), vehicle: saline) is reported as 122 % of control.

For CC(=O)[C@]1(O)Cc2c(O)c3c(c(O)c2[C@@H](OC2CC(N)C(O)C(C)O2)C1)C(=O)c1c(O)cccc1C3=O (stereo partly specified), the T/C (dose: 0.32 mg/kg/injection, schedule: Q04DX003 (ip), vehicle: water) was 185 % of control, the T/C (dose: 0.39 mg/kg/injection, schedule: Q04DX003 (ip), vehicle: water) was 203 % of control and the T/C (dose: 0.54 mg/kg/injection, schedule: Q04DX003 (ip), vehicle: water) was 101 % of control. The T/C (dose: 0.9 mg/kg/injection, schedule: Q04DX003 (ip), vehicle: water) was 92 % of control and the T/C (dose: 1.08 mg/kg/injection, schedule: Q04DX003 (ip), vehicle: water) was 115 % of control.

For CCCSc1ccc([N+](=O)[O-])cc1, the T/C (dose: 200.0 mg/kg/injection, schedule: Q04DX002 (ip), vehicle: saline with Tween-80) was 93 % of control and the T/C (dose: 400.0 mg/kg/injection, schedule: Q04DX002 (ip), vehicle: saline with Tween-80) was 101 % of control.

In the case of Ic1ncnc2c1ncn2C1CCCO1 (stereo unspecified), the T/C (dose: 44.0 mg/kg/injection, schedule: Q01DX009 (ip), vehicle: saline sonified) is reported as 100 % of control, the T/C (dose: 66.0 mg/kg/injection, schedule: Q01DX009 (ip), vehicle: saline sonified) is reported as 123 % of control and the T/C (dose: 100.0 mg/kg/injection, schedule: Q01DX009 (ip), vehicle: saline sonified) is reported as 114 % of control. For the same molecule, the T/C (dose: 100.0 mg/kg/injection, schedule: Q04DX003 (ip), vehicle: saline sonified) was 115 % of control, the T/C (dose: 150.0 mg/kg/injection, schedule: Q01DX009 (ip), vehicle: saline sonified) was 114 % of control and the T/C (dose: 200.0 mg/kg/injection, schedule: Q01DX009 (ip), vehicle: saline sonified) was 122 % of control. For the same molecule, the T/C (dose: 200.0 mg/kg/injection, schedule: Q04DX003 (ip), vehicle: saline sonified) was 120 % of control, the T/C (dose: 400.0 mg/kg/injection, schedule: Q01DX009 (ip), vehicle: saline sonified) was 100 % of control and the T/C (dose: 400.0 mg/kg/injection, schedule: Q04DX003 (ip), vehicle: saline sonified) was 105 % of control.

c1ccc2c(c1)CC1C2ON2CCc3ccccc3C12 (stereo unspecified) was tested, and the T/C [5] was 91 % of control, the T/C [7] was 97 % of control and the T/C [9] was 109 % of control.

CC(C)CNC(=S)N/N=C\C=N/NC(=S)NCC(C)C was tested, and the T/C [11] was 98 % of control and the T/C [12] was 91 % of control.

Cc1cccc(C)c1N=CNc1c(C)cccc1C.[Cu+2] was tested, and the T/C [13] was 103 % of control and the T/C [4] was 86 % of control.

With CC(=O)N(C)N(Cc1ccc(C#N)cc1)C(C)=O the T/C (dose: 25.0 mg/kg/injection, schedule: Q04DX003 (ip), vehicle: Klucel (hydroxypropylcellulose) (HPC)) was 94 % of control, the T/C (dose: 50.0 mg/kg/injection, schedule: Q04DX003 (ip), vehicle: Klucel (hydroxypropylcellulose) (HPC)) was 100 % of control and the T/C [1] was 99 % of control. For the same molecule, the T/C [2] was 100 % of control and the T/C [3] was 111 % of control.

With CCOC(=O)/C=C(\C)C(C)=O the T/C [5] was 104 % of control, the T/C [6] was 109 % of control and the T/C [7] was 109 % of control. For the same molecule, the T/C [8] was 104 % of control, the T/C [9] was 113 % of control and the T/C [10] was 118 % of control.

With O=C(O)c1sccc1-c1cccc2ccccc12 the T/C (dose: 50.0 mg/kg/injection, schedule: Q01DX001 (ip), vehicle: saline) was 104 % of control, the T/C (dose: 100.0 mg/kg/injection, schedule: Q01DX001 (ip), vehicle: saline) was 100 % of control and the T/C (dose: 200.0 mg/kg/injection, schedule: Q01DX001 (ip), vehicle: saline) was 95 % of control.

With CN1CCCN(C)CC1 the T/C [11] was 103 % of control, the T/C [6] was 100 % of control and the T/C [12] was 119 % of control. For the same molecule, the T/C [8] was 95 % of control, the T/C (dose: 300.0 mg/kg/injection, schedule: Q01DX009 (ip), vehicle: saline with Tween-80) was 107 % of control and the T/C [10] was 112 % of control.

Clc1cccc(Cl)c1Br was tested, and the T/C (dose: 50.0 mg/kg/injection, schedule: Q04DX003 (ip), vehicle: gum acacia) was 95 % of control, the T/C (dose: 100.0 mg/kg/injection, schedule: Q01DX009 (ip), vehicle: Klucel (hydroxypropylcellulose) (HPC)) was 100 % of control and the T/C [1] was 88 % of control. The T/C (dose: 100.0 mg/kg/injection, schedule: Q04DX003 (ip), vehicle: gum acacia) was 108 % of control, the T/C (dose: 200.0 mg/kg/injection, schedule: Q01DX009 (ip), vehicle: Klucel (hydroxypropylcellulose) (HPC)) was 109 % of control and the T/C (dose: 200.0 mg/kg/injection, schedule: Q04DX003 (ip), vehicle: gum acacia) was 100 % of control. The T/C (dose: 400.0 mg/kg/injection, schedule: Q01DX009 (ip), vehicle: Klucel (hydroxypropylcellulose) (HPC)) was 90 % of control and the T/C [3] was 115 % of control.

With C=COCC(C)C (tested in a mixture with another compound) the T/C (dose: 0.19 mg/kg/injection, schedule: Q01DX009 (ip), vehicle: Klucel (hydroxypropylcellulose) (HPC)) was 105 % of control, the T/C (dose: 0.39 mg/kg/injection, schedule: Q01DX009 (ip), vehicle: Klucel (hydroxypropylcellulose) (HPC)) was 120 % of control and the T/C (dose: 0.78 mg/kg/injection, schedule: Q01DX009 (ip), vehicle: Klucel (hydroxypropylcellulose) (HPC)) was 120 % of control. For the same molecule, the T/C (dose: 0.78 mg/kg/injection, schedule: Q04DX003 (ip), vehicle: saline) was 104 % of control, the T/C (dose: 1.56 mg/kg/injection, schedule: Q01DX009 (ip), vehicle: Klucel (hydroxypropylcellulose) (HPC)) was 100 % of control and the T/C (dose: 1.56 mg/kg/injection, schedule: Q04DX003 (ip), vehicle: Klucel (hydroxypropylcellulose) (HPC)) was 109 % of control. For the same molecule, the T/C (dose: 1.56 mg/kg/injection, schedule: Q04DX003 (ip), vehicle: saline) was 95 % of control, the T/C (dose: 3.12 mg/kg/injection, schedule: Q04DX003 (ip), vehicle: Klucel (hydroxypropylcellulose) (HPC)) was 104 % of control and the T/C (dose: 3.12 mg/kg/injection, schedule: Q04DX003 (ip), vehicle: saline) was 104 % of control. The T/C (dose: 4.6 mg/kg/injection, schedule: Q04DX003 (ip), vehicle: saline) was 104 % of control, the T/C (dose: 6.25 mg/kg/injection, schedule: Q04DX003 (ip), vehicle: Klucel (hydroxypropylcellulose) (HPC)) was 113 % of control and the T/C (dose: 7.0 mg/kg/injection, schedule: Q04DX003 (ip), vehicle: saline) was 109 % of control. The T/C (dose: 7.5 mg/kg/injection, schedule: Q01DX001 (ip), vehicle: alcohol) was 91 % of control, the T/C (dose: 8.75 mg/kg/injection, schedule: Q01DX009 (ip), vehicle: saline with Tween-80) was 110 % of control and the T/C (dose: 10.0 mg/kg/injection, schedule: Q04DX003 (ip), vehicle: saline) was 104 % of control. For the same molecule, the T/C (dose: 15.0 mg/kg/injection, schedule: Q01DX001 (ip), vehicle: alcohol) was 104 % of control, the T/C (dose: 17.5 mg/kg/injection, schedule: Q01DX009 (ip), vehicle: saline with Tween-80) was 95 % of control and the T/C (dose: 30.0 mg/kg/injection, schedule: Q01DX001 (ip), vehicle: alcohol) was 104 % of control.

For O=[N+]([O-])c1cccc(/C=C/c2ccc(S(=O)(=O)F)cc2)c1, the T/C (dose: 50.0 mg/kg/injection, schedule: Q04DX003 (ip), vehicle: saline with Tween-80) was 95 % of control, the T/C [6] was 109 % of control and the T/C [8] was 95 % of control.

c1ccncc1 was tested, and the T/C (dose: 100.0 mg/kg/injection, schedule: Q04DX003 (ip), vehicle: saline) was 96 % of control, the T/C (dose: 200.0 mg/kg/injection, schedule: Q04DX003 (ip), vehicle: saline) was 102 % of control and the T/C (dose: 400.0 mg/kg/injection, schedule: Q04DX003 (ip), vehicle: saline) was 105 % of control.

In the case of CCOC(=O)CSc1sc(C(=O)OCC)c(N)c1C#N, the T/C (dose: 12.5 mg/kg/injection, schedule: Q01DX009 (ip), vehicle: saline with Tween-80) is reported as 99 % of control, the T/C [13] is reported as 99 % of control and the T/C [4] is reported as 99 % of control.
